This passage reports IC50 and EC50 results from ChEMBL document CHEMBL1201862, “PubChem BioAssay data set” (2004).

One may read the IC50 as the concentration that inhibits the measured activity by half. The term EC50 denotes the concentration needed to bring the measured effect to its halfway point.

Assay [1] in a line: Counterscreen for IDE inhibitors: Luminescence-based cell-based high throughput dose response assay to identify compounds that are cytotoxic to HEK cells. [Related pubchem assays: 434962 (Primary screen (IDE inhibitors in singlicate)), 449730 (Counterscreen (Cytotoxicity in triplicate)), 435028 (Confirmation (IDE inhibitors in triplicate)) …. In kind it is functional. The note with it: HEK293. A general note: A counterscreen serves to expose hits that act by an unwanted route or on another target.

The target in assay [2] is Oxytocin receptor (Homo sapiens, UniProt P30559). Briefly: Counterscreen for vasopressin 1 receptor (V1R) agonists: Fluorescence-based cell-based high throughput dose response assay for agonists of the Oxytocin Receptor (OXTR). [Related pubchem assays: 2435 (Primary screen (OXTR agonists in singlicate)), 434964 (Confirmation screen (V1R agonists in triplicate)), 434969 (Counterscreen (OXTR agonists in …. In kind it is functional.

Assay [3] has as its target Vasopressin V1a receptor (Homo sapiens, UniProt P37288). The assay can be described thus: Fluorescence-based cell-based high throughput dose response screening assay for agonists of the vasopressin 1 receptor (V1R). In kind it is functional.
In assay [4] the target is T1, Insulin-degrading enzyme (Homo sapiens, UniProt P14735).
T1 sequence (P14735 whole entry): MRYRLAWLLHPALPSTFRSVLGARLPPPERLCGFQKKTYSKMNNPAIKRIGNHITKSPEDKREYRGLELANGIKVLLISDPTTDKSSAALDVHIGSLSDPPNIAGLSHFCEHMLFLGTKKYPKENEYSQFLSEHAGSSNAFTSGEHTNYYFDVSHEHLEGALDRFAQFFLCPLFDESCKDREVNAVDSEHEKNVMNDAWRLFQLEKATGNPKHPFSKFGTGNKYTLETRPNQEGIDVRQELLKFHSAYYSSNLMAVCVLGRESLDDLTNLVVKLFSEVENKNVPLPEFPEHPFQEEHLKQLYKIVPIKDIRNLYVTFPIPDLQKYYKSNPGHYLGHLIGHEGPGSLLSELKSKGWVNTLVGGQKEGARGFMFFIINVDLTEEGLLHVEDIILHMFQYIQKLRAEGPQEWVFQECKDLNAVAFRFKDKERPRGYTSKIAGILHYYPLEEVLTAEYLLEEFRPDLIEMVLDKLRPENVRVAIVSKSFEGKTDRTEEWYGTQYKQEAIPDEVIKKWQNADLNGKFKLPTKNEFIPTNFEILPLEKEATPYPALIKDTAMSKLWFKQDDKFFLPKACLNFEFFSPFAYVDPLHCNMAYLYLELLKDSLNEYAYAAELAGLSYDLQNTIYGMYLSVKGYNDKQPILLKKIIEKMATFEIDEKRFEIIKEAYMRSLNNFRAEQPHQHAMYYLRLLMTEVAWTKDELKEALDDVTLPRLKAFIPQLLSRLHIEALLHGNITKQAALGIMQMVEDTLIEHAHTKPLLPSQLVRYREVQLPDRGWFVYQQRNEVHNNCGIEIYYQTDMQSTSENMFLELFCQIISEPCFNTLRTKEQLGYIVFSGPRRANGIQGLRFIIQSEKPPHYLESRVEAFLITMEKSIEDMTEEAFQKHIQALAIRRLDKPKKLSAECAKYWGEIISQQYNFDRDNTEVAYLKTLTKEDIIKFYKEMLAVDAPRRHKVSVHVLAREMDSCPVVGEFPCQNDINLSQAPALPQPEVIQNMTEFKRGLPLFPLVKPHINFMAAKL
The assay can be described thus: Dose Response: Fluorescence polarization-based cell-based high throughput dose response assay for inhibitors of insulin-degrading enzyme (IDE). [Related pubchem assays: 434962 (Primary screen (IDE inhibitors in singlicate)), 449730 (Counterscreen (Cytotoxicity in triplicate)), 435028 (Confirmation (IDE inhibitors in triplicate)), 434984 (Summary …. In kind it is functional. In general terms: Polarisation of emitted light reports the rotation of a fluorescent probe.

Assay [5] has as its target T2, Bcl-2-like protein 10 (Homo sapiens, UniProt Q9HD36).
T2 sequence (Q9HD36 whole entry): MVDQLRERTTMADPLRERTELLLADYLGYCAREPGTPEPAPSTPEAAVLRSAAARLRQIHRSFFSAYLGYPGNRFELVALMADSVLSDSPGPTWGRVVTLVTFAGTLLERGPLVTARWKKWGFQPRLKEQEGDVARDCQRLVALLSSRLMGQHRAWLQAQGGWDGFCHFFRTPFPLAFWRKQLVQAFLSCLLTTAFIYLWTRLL
Briefly: displacers of TR3 peptide from Bcl-B, primary screen, selectivity assay for Bfl-1 inhibitor project, biochemical, fluorescence polarization, FITC-TR3 peptide (AID 748).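 Also: fluorescence polarization from a fluorescein-labelled TR3 peptide binding purified Bcl-B.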

Assay [6] has as its target T3, Estrogen receptor (Homo sapiens, UniProt P03372).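 Also: potency for inhibiting coactivator peptide recruitment to the receptor.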
T3 sequence (P03372 whole entry): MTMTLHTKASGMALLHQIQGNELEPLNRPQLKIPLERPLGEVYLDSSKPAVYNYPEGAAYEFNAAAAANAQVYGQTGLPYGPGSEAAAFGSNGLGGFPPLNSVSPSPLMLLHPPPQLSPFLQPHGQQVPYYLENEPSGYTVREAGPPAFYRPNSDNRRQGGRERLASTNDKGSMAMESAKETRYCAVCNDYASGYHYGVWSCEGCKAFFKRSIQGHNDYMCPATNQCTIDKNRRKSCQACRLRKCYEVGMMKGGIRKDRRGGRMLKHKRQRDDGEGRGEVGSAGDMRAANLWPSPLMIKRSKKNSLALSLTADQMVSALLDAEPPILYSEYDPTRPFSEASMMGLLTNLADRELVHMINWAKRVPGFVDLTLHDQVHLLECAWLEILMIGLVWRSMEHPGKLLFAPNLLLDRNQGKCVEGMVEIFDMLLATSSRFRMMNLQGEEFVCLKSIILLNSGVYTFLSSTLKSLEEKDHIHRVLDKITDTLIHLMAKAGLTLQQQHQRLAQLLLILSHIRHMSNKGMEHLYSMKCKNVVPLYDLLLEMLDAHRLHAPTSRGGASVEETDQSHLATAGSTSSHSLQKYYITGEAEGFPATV

Assay [7] is described as follows: inhibitors of firefly luciferase expression or activity, dose response, H4 neuroglioma cells, luminescence (AID 1990). In kind it is functional, cell-based.
Assay [8] deals with HEK293. Briefly: NOD1 signaling inhibitors, primary screen, cell-based, luminescence, uHTS (AID 1578). In kind it is functional. The note with it: Homo sapiens.
Assay [9] concerns BJ. The assay can be described thus: cytotoxicity toward BJ-TERT fibroblasts, dose response, cell-based, RAS-independent, luminescence (AID 1933). The note with it: Homo sapiens. In kind it is functional.
In assay [10] the target is Luciferin 4-monooxygenase (Photinus pyralis, UniProt P08659). Briefly: Counter Screen for Luciferase-based Assay Positives. [Related pubchem assays: 620, 618, 411 ].
Assay [11] deals with HEK293. Briefly: cells. In kind it is functional, cell-based. The conditions noted are these: Homo sapiens.
Assay [12] deals with BJ. Briefly: cells. The note with it: Homo sapiens. In kind it is functional, cell-based.
Assay [13] deals with HEK293. Briefly: cells. In kind it is functional, cell-based. The conditions noted are these: Homo sapiens. The source holds these as a separate data set.
Assay [14] has as its system HEK293. Briefly: NOD2 signaling inhibitors in MDP-stimulated cells, cell-based, uHTS, luminescence (AID 2001). In kind it is functional. The conditions noted are these: Homo sapiens.
Assay [15] in a line: Luminescence-based dose response cell-based high throughput screening assay for cytotoxic compounds using the IEC-6 intestinal epithelial cell line. [Related pubchem assays: 1858 (Summary AID.), 1825 (Counterscreen.), 1907 (Confirmation screen.)]. In kind it is functional.
Assay [16] deals with HT-1080. Briefly: cytotoxicity in HT1080 fibrosarcoma cells, cell-based, fluorescence readout (AID 620). In kind it is functional. The note with it: Homo sapiens.
For assay [17], the system named is BJ. Briefly: cytotoxicity toward BJ-TERT-LT-ST fibroblasts, dose response, cell-based, RAS-independent, luminescence (AID 1935).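 Also: BJ fibroblasts immortalized with TERT plus LT and ST oncogenes.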 The note with it: Homo sapiens. In kind it is functional.
Assay [18] can be described thus: cytotoxicity toward DRD oncogenic fibroblasts, dose response, cell-based, non-viral oncogenic, luminescence (AID 1934). In kind it is functional. The conditions noted are these: Homo sapiens.

Calls of active or inactive are those of the source. Some results are limits rather than exact numbers.

Chain of Vasopressin V1a receptor (P37288 whole entry): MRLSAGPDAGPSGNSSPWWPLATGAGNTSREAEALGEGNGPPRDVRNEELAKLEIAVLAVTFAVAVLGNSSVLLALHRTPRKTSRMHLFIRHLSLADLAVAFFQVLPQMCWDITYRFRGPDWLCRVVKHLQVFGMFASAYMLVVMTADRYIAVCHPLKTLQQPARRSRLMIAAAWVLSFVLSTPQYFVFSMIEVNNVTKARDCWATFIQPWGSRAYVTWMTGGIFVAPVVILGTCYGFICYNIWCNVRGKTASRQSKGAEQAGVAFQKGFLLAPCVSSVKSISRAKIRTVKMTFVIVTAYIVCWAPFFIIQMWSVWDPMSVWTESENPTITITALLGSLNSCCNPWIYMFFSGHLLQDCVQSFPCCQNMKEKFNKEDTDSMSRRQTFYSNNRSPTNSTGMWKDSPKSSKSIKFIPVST
Chain of Luciferin 4-monooxygenase (P08659 whole entry): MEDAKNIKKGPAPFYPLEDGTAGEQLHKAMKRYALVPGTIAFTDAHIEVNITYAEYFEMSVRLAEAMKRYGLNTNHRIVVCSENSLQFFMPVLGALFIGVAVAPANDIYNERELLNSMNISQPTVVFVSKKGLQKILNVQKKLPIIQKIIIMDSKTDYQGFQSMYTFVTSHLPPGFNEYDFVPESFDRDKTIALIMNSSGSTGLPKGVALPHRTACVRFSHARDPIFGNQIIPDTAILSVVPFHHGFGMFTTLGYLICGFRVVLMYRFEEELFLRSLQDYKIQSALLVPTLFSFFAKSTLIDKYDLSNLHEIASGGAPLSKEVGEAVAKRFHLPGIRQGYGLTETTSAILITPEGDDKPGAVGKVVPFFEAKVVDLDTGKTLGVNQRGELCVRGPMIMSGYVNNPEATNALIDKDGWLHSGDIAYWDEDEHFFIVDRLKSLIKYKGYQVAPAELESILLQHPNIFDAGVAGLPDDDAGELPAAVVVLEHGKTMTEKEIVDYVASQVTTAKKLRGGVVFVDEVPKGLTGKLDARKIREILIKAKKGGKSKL
Chain of Oxytocin receptor (P30559 whole entry): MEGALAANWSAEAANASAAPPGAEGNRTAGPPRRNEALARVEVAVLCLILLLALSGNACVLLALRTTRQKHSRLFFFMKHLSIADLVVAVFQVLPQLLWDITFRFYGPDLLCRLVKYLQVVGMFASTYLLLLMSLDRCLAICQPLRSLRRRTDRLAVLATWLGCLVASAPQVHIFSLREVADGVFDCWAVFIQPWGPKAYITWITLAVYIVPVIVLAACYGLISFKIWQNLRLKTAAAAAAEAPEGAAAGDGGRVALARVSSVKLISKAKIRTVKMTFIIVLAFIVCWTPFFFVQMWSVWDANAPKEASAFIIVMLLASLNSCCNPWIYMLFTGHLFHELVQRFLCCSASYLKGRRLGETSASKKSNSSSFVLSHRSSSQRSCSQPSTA

Regarding `CC(OC(=O)/C(C#N)=C/c1ccc(N(C)C)cc1)C(=O)N(C)Cc1ccccc1` (stereo not drawn), the IC50 in assay [1] was 16.5 µM (not active); in [4], 12.8 µM (not active). The results for the EC50 in [2] and in assay [3] were > 9.97 µM (active) and > 3.32 µM (active), respectively.
`CCOC(=O)C1=C(C)S/C(=C\N(C)C)C1=O`: the IC50 in [5] is 37.8 µM (active); in assay [6], 40.3 µM (not active).
In the case of `COc1cccc(Cn2c(NCc3cccnc3)nc3c2c(=O)n(C)c(=O)n3C)c1`, the concentration giving a half-maximal response (EC50) was 12 µM (active) in [7]; > 20 µM (inactive) in assay [8]; > 150 µM (not active) in assay [9]; 39.5 µM (active) in assay [10]; 4.58 µM (inconclusive) in assay [12]; > 50 µM (not active) in assay [16]. The 50% effective concentration (EC50) in assay [17] is > 150 µM (inconclusive); in [18] it was 5.5 µM (active). The IC50 in assay [11] was > 20 µM (inactive); in assay [13], > 20 µM (inactive); in assay [14] it was 14.6 µM (inactive); in assay [15], 0.425 µM (active).
